{"source": "paper PMC12469827", "about": "“Targeting G6PD with Benzimidazole and Thiazole Derivatives Suppresses SIRT 2 and VEGF Expression and Induces Cytotoxicity in Glioma Cells” (International Journal of Molecular Sciences, 2025)", "key": {"[1]": {"molecular_target": "T1, Glucose-6-Phosphate Dehydrogenase (G6PD) (Homo sapiens, UniProt P11413)", "T1 sequence (P11413 2-515)": "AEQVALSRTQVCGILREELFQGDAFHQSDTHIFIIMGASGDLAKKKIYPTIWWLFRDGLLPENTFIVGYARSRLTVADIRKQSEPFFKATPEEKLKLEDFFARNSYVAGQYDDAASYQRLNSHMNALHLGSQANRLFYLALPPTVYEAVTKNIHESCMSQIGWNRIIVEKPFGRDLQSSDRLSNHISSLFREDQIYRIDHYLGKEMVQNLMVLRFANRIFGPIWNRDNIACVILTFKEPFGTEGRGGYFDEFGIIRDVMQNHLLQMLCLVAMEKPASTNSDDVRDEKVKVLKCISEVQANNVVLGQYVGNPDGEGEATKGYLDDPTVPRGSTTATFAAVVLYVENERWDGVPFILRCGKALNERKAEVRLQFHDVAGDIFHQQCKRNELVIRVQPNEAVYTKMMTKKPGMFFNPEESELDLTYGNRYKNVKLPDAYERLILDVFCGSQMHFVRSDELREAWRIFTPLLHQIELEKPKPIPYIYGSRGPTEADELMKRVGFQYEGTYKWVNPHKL", "experiment": "residual activity of purified recombinant enzyme (NADPH at […] nm) after […] h incubation; supported by CD and intrinsic fluorescence", "type": "biochemical"}, "[2]": {"molecular_target": "T1, Glucose-6-Phosphate Dehydrogenase (G6PD)", "experiment": "residual activity of purified recombinant enzyme (NADPH at […] nm) after […] h incubation; supported by intrinsic fluorescence (minimal CD change)", "type": "biochemical"}}, "data": [{"smiles": "O=C(Nc1ccc(Cl)cc1)Nc1ncc([N+](=O)[O-])s1", "note": "[CNZ-3]", "values": [{"measurement": "IC50", "setting": "[1]", "value": 121, "unit": "µM"}]}, {"smiles": "Cc1cnc(C[S+]([O-])c2nc3cc([N+](=O)[O-])ccc3[nH]2)c(C)c1OCC(F)(F)F", "note": "(stereo not drawn) [BZM-9]", "values": [{"measurement": "IC50", "setting": "[2]", "value": 42, "unit": "µM"}]}, {"smiles": "O=[N+]([O-])c1ccc2nc([S+]([O-])Cc3ccccn3)[nH]c2c1", "note": "(stereo not drawn) [BZM-7]", "values": [{"measurement": "IC50", "setting": "[1]; read-out: IC50", "value": 40, "unit": "µM"}]}]}
